Three molecules from patent publication EP1568373A2, “Inducing cellular immune responses to HER2/neu using peptide and nucleic acid compositions” (priority 1999, dated 2001) can be followed below.

Where no end group is shown, it is not given here.

In test [1] the target is DRB1*0301 (DR3) (Homo sapiens, UniProt P01903+P01911, A100K/A102G/A103R/A169T/F55Y/I96L/K41T/L162R/M171V/P40S/Q125H/Q178H/Q39Y/R42S/S66N/T106N/T262R/W38E/Y61H). The experiment in a line: HLA class II binding assay, purified HLA molecules. The following applies: Table XXX.
Sequence of DRB1*0301 (DR3) (P01903 26-254 limits assumed, other chains not shown): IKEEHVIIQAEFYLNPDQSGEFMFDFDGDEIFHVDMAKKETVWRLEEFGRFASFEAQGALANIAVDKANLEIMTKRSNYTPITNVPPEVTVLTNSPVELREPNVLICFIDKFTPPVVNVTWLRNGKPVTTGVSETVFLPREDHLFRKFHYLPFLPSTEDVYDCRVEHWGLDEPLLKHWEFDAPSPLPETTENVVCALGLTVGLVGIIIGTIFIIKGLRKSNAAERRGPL
For test [2], the system named is CD8+ T-cells. The experiment in a line: Primary in vitro CTL induction with peptide-pulsed DC, 51Cr release and in situ IFNγ assays. Format: cell-based, human. As for the experimental part: The colon adenocarcinoma cell lines SW403 and HT-29 were obtained from the American Type Culture Collection (ATCC) (Rockville, MD). The cell lines that were obtained from ATCC were maintained under the culture conditions recommended by the supplier. […] The colon cancer cells were treated with 100U/ml IFNγ (Genzyme) for 48 hours at 37°C before use as targets in the ^51Cr release and in situ IFNγ assays.
The monocytes were purified by plating 10 x 10^6 PBMC/well in a 6-well plate. After 2 hours at 37°C, the non-adherent cells were removed by gently shaking the plates and aspirating the supernatants. The wells were washed a total of three times with 3 ml RPMI to remove most of the non-adherent and loosely adherent cells. Three ml of complete medium containing 50 ng/ml of GM-CSF and 1,000 U/ml of IL 4 were then added to each well. […]
Induction of CTL with DC and Peptide: CD8+ T-cells were isolated by positive selection with Dynal immunomagnetic beads (Dynabeads® M-450) and the detacha-bead® reagent. […] The DC were collected and centrifuged at 1300 rpm for 5-7 minutes, washed once with PBS with 1% BSA, counted and pulsed with 40µg/ml of peptide at a cell concentration of 1-2×10^6/ml in the presence of 3µg/ml ß2- microglobulin for 4 hours at 20°C. The DC were then irradiated (4,200 rads), washed 1 time with medium and counted again. […]

One may read the IC50 as the concentration at which inhibition is half-maximal.

For `CSCC[C@H](NC(=O)[C@H](CCCNC(=N)N)NC(=O)[C@H](CO)NC(=O)[C@H](Cc1ccccc1)NC(=O)[C@H](CCC(=O)O)NC(=O)[C@H](CO)NC(=O)[C@@H](NC(=O)[C@H](CC(C)C)NC(=O)[C@H](CCC(=O)O)NC(=O)[C@H](CCCNC(=N)N)NC(=O)[C@@H](N)Cc1ccccc1)C(C)C)C(=O)N[C@@H](C)C(=O)N[C@@H](CCCNC(=N)N)C(=O)N[C@@H](CC(=O)O)C(=O)N1CCC[C@H]1C(=O)O` [Her2/neu.969], in test [1], the IC50 was found to be 4.22 µM. This lies in the single-digit micromolar range.

For SLSFLQDIQEVQGYV [Her2/neu.70], the IC50 in test [1] stood at 5.77 µM. With `CC(C)C[C@H](NC(=O)[C@H](CO)NC(=O)CNC(=O)[C@H](Cc1ccccc1)NC(=O)[C@@H](NC(=O)[C@@H](N)CCCCN)C(C)C)C(=O)N[C@@H](C)C(=O)N[C@@H](Cc1ccccc1)C(=O)N[C@H](C(=O)O)C(C)C` [V2V9], the “recognition of wild-type peptide and of tumor targets that endogenously express HER2/neu by the induced CTLs” value in test [2] (expanded positive cultures) is “also recognized the target tumor cells”. For the same molecule, the “induction of peptide-specific CTL response” value in test [2] (normal donors, peptide-pulsed targets) is reported as “induced peptide-specific CTLs”.
